What was measured:
[1] = target: NA of A/Osaka/180/2009 (O180r; NA H274Y) (Influenza A virus, UniProt C3W5S3, H275Y); assay type: biochemical, 2009 pandemic influenza A (H1N1) virus
[2] = target: NA of A/Vietnam/HN32060/2009 (VN32060r; NA H274Y) (Influenza A virus, UniProt C3W5S3, H275Y); assay type: biochemical, 2009 pandemic influenza A (H1N1) virus

CC(=O)N[C@H]1[C@H]([C@H](O)[C@H](O)CO)OC(C(=O)O)=C[C@@H]1N=C(N)N [Zanamivir]
IC50 value of O180r compared with O164s [1]: comparable
IC50 value of VN32060r compared with VN9727s [2]: comparable

Source: paper PMC2928817 (PLoS Pathogens, 2010)
